Measured values taken from US8178506B2, “Oligomeric compounds and compositions for use in modulation of small non-coding RNAs” (Regulus Therapeutics Inc., priority 2003, dated 2012).
In the oligonucleotide strings, read from the 5' end, every base follows the letter of its sugar. An asterisk marks phosphorothioate; unmarked linkages are phosphodiester. Other units and linkages are bracketed, terminal groups are in braces. A string of capitals states the bases alone. e = 2'-O-(2-methoxyethyl) (MOE); [5mC] = 5-methylcytosine

Legend:
mir-23b miRNA = test: pGL3-mir-23b sensor luciferase assay in HeLa cells; assay type: cell-based, human; conditions: pGL3-mir-23b sensor-expressing HeLa cells
Description: In order to assess the ability of miRNAs to bind predicted miRNA binding sites and regulate the expression of the luciferase reporter, in some embodiments, expression systems based on the pGL3-Control (Promega Corp., Madison Wis.) reporter vector and comprising either a mir-15a, mir-21, or a mir-23b miRNA binding site were developed and used in transient transfections of HeLa cells to determine whether the endogenous mir-15a, mir-21, or mir-23b miRNAs, respectively, could repress luciferase reporter gene expression.
The pGL3-mir-23b sensor plasmid was created by cloning the sequence ([…]; SEQ ID NO: 307), representing a sequence complementary to the mir-23b miRNA, into the Xba site of the pGL3-Control plasmid, placing the potential miRNA-binding site in the 3′UTR of the luciferase reporter. This reporter plasmid was used to transfect HeLa cells and it was observed that the endogenous mir-23b miRNA was able to inhibit luciferase expression from the pGL3-mir-23b sensor plasmid. Thus, to further evaluate the ability of the mir-23b miRNA to bind this target site encoded by the pGL3-mir-23b sensor plasmid, and to assess the ability of oligomeric compounds to interfere with mir-23b-mediated silencing, pGL3-mir-23b sensor-expressing HeLa cells were treated with varying concentrations (1.3-, 5- or 20 nM) of the following oligomeric compounds: ISIS Number 327889 (SEQ ID NO: 307), a phosphorothioate uniform 2′-MOE oligomeric compound, and ISIS Number 340925 (SEQ ID NO: 307), a 2′-MOE 5-10-8 gapmer oligomeric compound, both targeting mir-23b. The uniform 2′-MOE phosphorothioate oligomeric compound ISIS Number 327924 (SEQ ID NO: 342) targeting an unrelated miRNA (mir-129-2) was used as a negative control. The data are the average of three trials, and are presented in Table 43 as relative luciferase activity (normalized to pRL-CMV luciferase plasmid only, not treated with oligomeric compound).

A549 cells = test: Cell cycle assay in A549 cells; assay type: cell-based, human; conditions: A549 cells, 24 hours, relative to the untreated control cells in that phase
Description: In accordance with the present invention, certain oligomeric compounds targeting miRNAs were selected for dose response studies. Using the cell cycle assay described above, the cell cycle profiles of HeLa or A549 cells treated with varying concentrations of oligomeric compounds of the present invention were assessed.
Concomittent decreases in the percentage of cells in G1-phase of the cell cycle and increases in the percentage of hypodiploid (subG1) cells were also observed.
In a further study, A549 cells were treated with 25-, 50-, 100- or 150 nM of the oligomeric compounds ISIS Numbers 338637 (SEQ ID NO: 464) targeted against mir-96, and ISIS 338769 (SEQ ID NO: 596) targeted against mir-130b, ISIS 338836 (SEQ ID NO: 663) targeted against mir-23a, and ISIS 340350 (SEQ ID NO: 855) targeted against mir-95 (Mourelatos). Cells treated with increasing concentrations of oligomeric compounds were compared to untreated cells, to assess the dose-responsiveness of the observed delay or arrest. The random-mer ISIS 29848 was used as a negative control. Cells were prepared for flow cytometry 24-hours after oligonucleotide treatment. Results of these dose response studies are shown in Table 34, where data are expressed as percentage of cells in each phase relative to the untreated control cells in that phase.

## 327889 (antisense eG*eT*eG*eG*eT*eA*eA*eT*e[5mC]*e[5mC]*e[5mC]*eT*eG*eG*e[5mC]*eA*eA*eT*eG*eT*eG*eA*eT) [compound 327889]
mir-23b miRNA; 1.3 nM
  Fold change luciferase: 3.75
mir-23b miRNA; 5 nM
  Fold change luciferase: 3.46
mir-23b miRNA; 20 nM
  Fold change luciferase: 7.40

## 340350 (antisense TGCTCAATAAATACCCGTTGAA; all 2'-MOE, all phosphorothioate, methylation of C not given here) [compound 340350]
A549 cells; 25 nM
  % cells in cell cycle phase: G1: 102%
  % cells in cell cycle phase: G2/M: 95%
  % cells in cell cycle phase: S: 100%
  % cells in cell cycle phase: aneuploid: 120%
  % cells in cell cycle phase: subG1: 91%
A549 cells; 50 nM
  % cells in cell cycle phase: G1: 128%
  % cells in cell cycle phase: G2/M: 126%
  % cells in cell cycle phase: S: 67%
  % cells in cell cycle phase: aneuploid: 80%
  % cells in cell cycle phase: subG1: 158%
A549 cells; 100 nM
  % cells in cell cycle phase: G1: 125%
  % cells in cell cycle phase: G2/M: 155%
  % cells in cell cycle phase: S: 60%
  % cells in cell cycle phase: aneuploid: 107%
  % cells in cell cycle phase: subG1: 267%
A549 cells; 150 nM
  % cells in cell cycle phase: G1: 128%
  % cells in cell cycle phase: G2/M: 211%
  % cells in cell cycle phase: S: 40%
  % cells in cell cycle phase: aneuploid: 108%
  % cells in cell cycle phase: subG1: 402%
